{"source": "patent US8952024B2", "about": "“Herbicidal pyrimidone derivatives” (E I du Pont de Nemours and Company, priority 2009, dated 2015)", "data": [{"test_system": "giant foxtail (Setaria faberii)", "assay": "Test B pre-/postemergence plant response", "assay_type": "in vivo", "details": "Postemergence, 250 g ai/ha; scale 0 to 100 (0 no effect, 100 complete control); 13 to 15 days", "outline": "(§1)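 Greenhouse herbicide screen. Pre- and postemergence (1- to 4-leaf) spray of compound in solvent/surfactant mixture; loam–sand soil for pre, peat/vermiculite medium for post. Visual control rating 0–100 at 13 to 15 days after treatment.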", "values": [{"smiles": "COCCn1c(-c2ccsc2)ncc(C(=O)C2=C(O)C3CCC(C3)C2=O)c1=O", "note": "(stereo not shown) [Compound 228]", "Plant response rating, Foxtail, Giant": 95}]}, {"test_system": "green foxtail (Setaria viridis)", "assay": "Test B pre-/postemergence plant response", "assay_type": "in vivo", "details": "Postemergence, 31 g ai/ha; 0 to 100 scale (0 no effect, 100 complete control)", "outline": "as §1", "values": [{"smiles": "COCCn1c(-c2ccsc2)ncc(C(=O)C2=C(O)C3CCC(C3)C2=O)c1=O", "note": "(stereo not shown) [Compound 228]", "Plant response rating, Foxtail, Green": 85}]}, {"test_system": "green foxtail (Setaria viridis)", "assay": "Test B pre-/postemergence plant response", "assay_type": "in vivo", "details": "Postemergence, 62 g ai/ha; scale 0 to 100 (0 no effect, 100 complete control)", "outline": "as §1", "values": [{"smiles": "COCCn1c(-c2ccsc2)ncc(C(=O)C2=C(O)C3CCC(C3)C2=O)c1=O", "note": "(stereo not shown) [Compound 228]", "Plant response rating, Foxtail, Green": 90}]}, {"test_system": "green foxtail (Setaria viridis)", "assay": "Test B pre-/postemergence plant response", "assay_type": "in vivo", "details": "Postemergence, 125 g ai/ha; scale 0 to 100 (0 no effect, 100 complete control)", "outline": "as §1", "values": [{"smiles": "COCCn1c(-c2ccsc2)ncc(C(=O)C2=C(O)C3CCC(C3)C2=O)c1=O", "note": "(stereo not shown) [Compound 228]", "Plant response rating, Foxtail, Green": 98}]}, {"test_system": "green foxtail (Setaria viridis)", "assay": "Test B pre-/postemergence plant response", "assay_type": "in vivo", "details": "Postemergence, 250 g ai/ha; scale 0 to 100 (0 no effect, 100 complete control); 13 to 15 days", "outline": "as §1", "values": [{"smiles": "COCCn1c(-c2ccsc2)ncc(C(=O)C2=C(O)C3CCC(C3)C2=O)c1=O", "note": "(stereo not shown) [Compound 228]", "Plant response rating, Foxtail, Green": 100}]}, {"test_system": "lambsquarters (Chenopodium album)", "assay": "Test B pre-/postemergence plant response", "assay_type": "in vivo", "details": "Postemergence, 31 g ai/ha; 0 to 100 scale (0 no effect, 100 complete control)", "outline": "as §1", "values": [{"smiles": "COCCn1c(-c2ccsc2)ncc(C(=O)C2=C(O)C3CCC(C3)C2=O)c1=O", "note": "(stereo not shown) [Compound 228]", "Plant response rating, Lambsquarters": 98}]}, {"test_system": "lambsquarters (Chenopodium album)", "assay": "Test B pre-/postemergence plant response", "assay_type": "in vivo", "details": "Postemergence, 62 g ai/ha; scale 0 to 100 (0 no effect, 100 complete control)", "outline": "as §1", "values": [{"smiles": "COCCn1c(-c2ccsc2)ncc(C(=O)C2=C(O)C3CCC(C3)C2=O)c1=O", "note": "(stereo not shown) [Compound 228]", "Plant response rating, Lambsquarters": 98}]}, {"test_system": "lambsquarters (Chenopodium album)", "assay": "Test B pre-/postemergence plant response", "assay_type": "in vivo", "details": "Postemergence, 125 g ai/ha; scale 0 to 100 (0 no effect, 100 complete control)", "outline": "as §1", "values": [{"smiles": "COCCn1c(-c2ccsc2)ncc(C(=O)C2=C(O)C3CCC(C3)C2=O)c1=O", "note": "(stereo not shown) [Compound 228]", "Plant response rating, Lambsquarters": 100}]}, {"test_system": "lambsquarters (Chenopodium album)", "assay": "Test B pre-/postemergence plant response", "assay_type": "in vivo", "details": "Postemergence, 250 g ai/ha; scale 0 to 100 (0 no effect, 100 complete control); 13 to 15 days", "outline": "as §1", "values": [{"smiles": "COCCn1c(-c2ccsc2)ncc(C(=O)C2=C(O)C3CCC(C3)C2=O)c1=O", "note": "(stereo not shown) [Compound 228]", "Plant response rating, Lambsquarters": 100}]}, {"test_system": "large crabgrass (Digitaria sanguinalis)", "assay": "Test B pre-/postemergence plant response", "assay_type": "in vivo", "details": "Postemergence, 31 g ai/ha; 0 to 100 scale (0 no effect, 100 complete control)", "outline": "as §1", "values": [{"smiles": "COCCn1c(-c2ccsc2)ncc(C(=O)C2=C(O)C3CCC(C3)C2=O)c1=O", "note": "(stereo not shown) [Compound 228]", "Plant response rating, Crabgrass, Large": 80}]}, {"test_system": "large crabgrass (Digitaria sanguinalis)", "assay": "Test B pre-/postemergence plant response", "assay_type": "in vivo", "details": "Postemergence, 62 g ai/ha; scale 0 to 100 (0 no effect, 100 complete control)", "outline": "as §1", "values": [{"smiles": "COCCn1c(-c2ccsc2)ncc(C(=O)C2=C(O)C3CCC(C3)C2=O)c1=O", "note": "(stereo not shown) [Compound 228]", "Plant response rating, Crabgrass, Large": 98}]}, {"test_system": "large crabgrass (Digitaria sanguinalis)", "assay": "Test B pre-/postemergence plant response", "assay_type": "in vivo", "details": "Postemergence, 125 g ai/ha; scale 0 to 100 (0 no effect, 100 complete control)", "outline": "as §1", "values": [{"smiles": "COCCn1c(-c2ccsc2)ncc(C(=O)C2=C(O)C3CCC(C3)C2=O)c1=O", "note": "(stereo not shown) [Compound 228]", "Plant response rating, Crabgrass, Large": 98}]}, {"test_system": "large crabgrass (Digitaria sanguinalis)", "assay": "Test B pre-/postemergence plant response", "assay_type": "in vivo", "details": "Postemergence, 250 g ai/ha; scale 0 to 100 (0 no effect, 100 complete control); 13 to 15 days", "outline": "as §1", "values": [{"smiles": "COCCn1c(-c2ccsc2)ncc(C(=O)C2=C(O)C3CCC(C3)C2=O)c1=O", "note": "(stereo not shown) [Compound 228]", "Plant response rating, Crabgrass, Large": 98}]}, {"test_system": "morningglory (Ipomoea coccinea)", "assay": "Test B pre-/postemergence plant response", "assay_type": "in vivo", "details": "Postemergence, 31 g ai/ha; 0 to 100 scale (0 no effect, 100 complete control)", "outline": "as §1", "values": [{"smiles": "COCCn1c(-c2ccsc2)ncc(C(=O)C2=C(O)C3CCC(C3)C2=O)c1=O", "note": "(stereo not shown) [Compound 228]", "Plant response rating, Morningglory": 100}]}, {"test_system": "morningglory (Ipomoea coccinea)", "assay": "Test B pre-/postemergence plant response", "assay_type": "in vivo", "details": "Postemergence, 62 g ai/ha; scale 0 to 100 (0 no effect, 100 complete control)", "outline": "as §1", "values": [{"smiles": "COCCn1c(-c2ccsc2)ncc(C(=O)C2=C(O)C3CCC(C3)C2=O)c1=O", "note": "(stereo not shown) [Compound 228]", "Plant response rating, Morningglory": 100}]}, {"test_system": "morningglory (Ipomoea coccinea)", "assay": "Test B pre-/postemergence plant response", "assay_type": "in vivo", "details": "Postemergence, 125 g ai/ha; scale 0 to 100 (0 no effect, 100 complete control)", "outline": "as §1", "values": [{"smiles": "COCCn1c(-c2ccsc2)ncc(C(=O)C2=C(O)C3CCC(C3)C2=O)c1=O", "note": "(stereo not shown) [Compound 228]", "Plant response rating, Morningglory": 100}]}, {"test_system": "morningglory (Ipomoea coccinea)", "assay": "Test B pre-/postemergence plant response", "assay_type": "in vivo", "details": "Postemergence, 250 g ai/ha; scale 0 to 100 (0 no effect, 100 complete control); 13 to 15 days", "outline": "as §1", "values": [{"smiles": "COCCn1c(-c2ccsc2)ncc(C(=O)C2=C(O)C3CCC(C3)C2=O)c1=O", "note": "(stereo not shown) [Compound 228]", "Plant response rating, Morningglory": 100}]}, {"test_system": "woolly cupgrass (Eriochloa villosa)", "assay": "Test B pre-/postemergence plant response", "assay_type": "in vivo", "details": "Postemergence, 31 g ai/ha; 0 to 100 scale (0 no effect, 100 complete control)", "outline": "as §1", "values": [{"smiles": "COCCn1c(-c2ccsc2)ncc(C(=O)C2=C(O)C3CCC(C3)C2=O)c1=O", "note": "(stereo not shown) [Compound 228]", "Plant response rating, Cupgrass, Woolly": 75}]}, {"test_system": "woolly cupgrass (Eriochloa villosa)", "assay": "Test B pre-/postemergence plant response", "assay_type": "in vivo", "details": "Postemergence, 62 g ai/ha; scale 0 to 100 (0 no effect, 100 complete control)", "outline": "as §1", "values": [{"smiles": "COCCn1c(-c2ccsc2)ncc(C(=O)C2=C(O)C3CCC(C3)C2=O)c1=O", "note": "(stereo not shown) [Compound 228]", "Plant response rating, Cupgrass, Woolly": 95}]}, {"test_system": "woolly cupgrass (Eriochloa villosa)", "assay": "Test B pre-/postemergence plant response", "assay_type": "in vivo", "details": "Postemergence, 125 g ai/ha; scale 0 to 100 (0 no effect, 100 complete control)", "outline": "as §1", "values": [{"smiles": "COCCn1c(-c2ccsc2)ncc(C(=O)C2=C(O)C3CCC(C3)C2=O)c1=O", "note": "(stereo not shown) [Compound 228]", "Plant response rating, Cupgrass, Woolly": 95}]}, {"test_system": "woolly cupgrass (Eriochloa villosa)", "assay": "Test B pre-/postemergence plant response", "assay_type": "in vivo", "details": "Postemergence, 250 g ai/ha; scale 0 to 100 (0 no effect, 100 complete control); 13 to 15 days", "outline": "as §1", "values": [{"smiles": "COCCn1c(-c2ccsc2)ncc(C(=O)C2=C(O)C3CCC(C3)C2=O)c1=O", "note": "(stereo not shown) [Compound 228]", "Plant response rating, Cupgrass, Woolly": 98}]}, {"test_system": "yellow nutsedge (Cyperus esculentus)", "assay": "Test B pre-/postemergence plant response", "assay_type": "in vivo", "details": "Postemergence, 31 g ai/ha; 0 to 100 scale (0 no effect, 100 complete control)", "outline": "as §1", "values": [{"smiles": "COCCn1c(-c2ccsc2)ncc(C(=O)C2=C(O)C3CCC(C3)C2=O)c1=O", "note": "(stereo not shown) [Compound 228]", "Plant response rating, Nutsedge, Yellow": 40}]}, {"test_system": "yellow nutsedge (Cyperus esculentus)", "assay": "Test B pre-/postemergence plant response", "assay_type": "in vivo", "details": "Postemergence, 62 g ai/ha; scale 0 to 100 (0 no effect, 100 complete control)", "outline": "as §1", "values": [{"smiles": "COCCn1c(-c2ccsc2)ncc(C(=O)C2=C(O)C3CCC(C3)C2=O)c1=O", "note": "(stereo not shown) [Compound 228]", "Plant response rating, Nutsedge, Yellow": 45}]}, {"test_system": "yellow nutsedge (Cyperus esculentus)", "assay": "Test B pre-/postemergence plant response", "assay_type": "in vivo", "details": "Postemergence, 125 g ai/ha; scale 0 to 100 (0 no effect, 100 complete control)", "outline": "as §1", "values": [{"smiles": "COCCn1c(-c2ccsc2)ncc(C(=O)C2=C(O)C3CCC(C3)C2=O)c1=O", "note": "(stereo not shown) [Compound 228]", "Plant response rating, Nutsedge, Yellow": 60}]}, {"test_system": "yellow nutsedge (Cyperus esculentus)", "assay": "Test B pre-/postemergence plant response", "assay_type": "in vivo", "details": "Postemergence, 250 g ai/ha; scale 0 to 100 (0 no effect, 100 complete control); 13 to 15 days", "outline": "as §1", "values": [{"smiles": "COCCn1c(-c2ccsc2)ncc(C(=O)C2=C(O)C3CCC(C3)C2=O)c1=O", "note": "(stereo not shown) [Compound 228]", "Plant response rating, Nutsedge, Yellow": 70}]}]}
